The nature of data set [1]: Relative VOC content / volatility by TGA emulating ASTM D2369. The following applies: 110° C., nitrogen purge, 15 mg. The method, then: Here, 15 milligrams (mg) of each coalescent solvent was maintained at 110° C. for one hour with a nitrogen purge in a thermogravimetric analyzer (TGA).
Data set [2] in a line: Solubility of personal care or medicinal active agents in ketal. The following applies: 50/50 mixture, room temperature. The text has this:
Certified organic tea tree oil (Melaleuca alternifolia, plant sourced from Australia and extracted by steam distillation) can be purchased from Wyndmere Naturals.
The recommended usage rate is 0.1-1%.
The recommended usage rate is 0.01-0.05%.

Data set [3] is described as follows: Hydrolytic stability of coalescent solvents at elevated temperature (45° C.). It counts as physicochemical. The following applies: 1.0 g coalescent in 10 g Rhoplex SG-10M; for Initial pH: adjusted to pH 9 with ammonia, 45° C. study; for pH 1 week / pH 2 weeks: stored at 45° C. The method, then:
(§1) Latex formulations were prepared by adding 1.0 gram of each coalescent solvent to 10 grams of an acrylic latex (Rhoplex SG-10M available from Dow Chemical Company) and adjusting the pH of each sample to a pH of 9 using ammonia. A control latex formulation was prepared without adding a coalescent solvent.

The nature of data set [4]: Compatibility between waxes and alkyl ketal esters. It is filed as physicochemical. An excerpt:
Compatibility between various waxes and the alkyl ketal esters are first determined as detailed below. Table 13 below details the fragrant formulations for different candles that contain the fragrant composition.

Data set [5] can be described thus: Miscibility of alkyl ketal ester with essential oil. The conditions noted are these: room temperature. It counts as physicochemical. An excerpt:
The alkyl ketal ester and the essential oil are blended in a weight ratio of 1:1 at room temperature using gentle agitation. Solubility is visually determined immediately after mixing. Clear solutions are described as “miscible” and solutions that are either cloudy or show evidence of a second phase are labeled as “immiscible.”

Data set [6] can be described thus: Hydrolytic stability of coalescent solvents at room temperature (pH of latex formulation). It is filed as physicochemical. The following applies: 1.0 g coalescent in 10 g Rhoplex SG-10M; for Initial pH: adjusted to pH 9 with ammonia, room temperature; for pH 1 week / pH 2 weeks / pH 3 weeks / pH 4 weeks: stored at room temperature.
Text: The pH of latex formulations containing ester-functionalized coalescent solvents was monitored over time to evaluate hydrolytic stability of the coalescent solvents. Not wishing to be bound by theory, ester hydrolysis may occur at a high alkaline pH (for example a pH greater than about 9) during storage of latex compositions. The resulting hydrolysis products lower the pH of the latex composition and could decrease the coalescing efficiency of the coalescing solvent with respect to the initial amount of the coalescing solvent.
as §1

A short description of data set [7]: Model ethanolic sunscreen solutions, miscibility. It counts as physicochemical. The conditions noted are these: by itself. The method, then: Three-component mixtures of ketal, ethanol, and avobenzone are prepared by mixing the materials at various proportions at room temperature in a vial and shaking. Avobenzone by itself is immiscible in ethanol at the 5% by weight level. The ketals used are as follows: A: ketal is 2EH-LPK; Example B: ketal is 1N-LPK. Example C: ketal is 355TMH-LPK.
Three-component mixtures of ketal, ethanol, and oxybenzone are prepared by mixing the materials at various proportions at room temperature in a vial and shaking. The ketals used are as follows: A: ketal is 2EH-LPK; Example B: ketal is 1N-LPK. Example C: ketal is 355TMH-LPK. Clear mixtures are considered to be “miscible” on this test, whereas cloudy or phase separated mixtures are considered to be “immiscible.” Oxybenzone by itself is immiscible in ethanol at the 10% by weight level.

Where [8] appears, read: Beeswax, 50/50 weight ratio, heated to 80° C., cooled to room temperature.
[9] abbreviates: Carnauba wax, 50/50 weight ratio, heated to 120° C.
Where [10] appears, read: Paraffin wax, 50/50 weight ratio, heated to 80° C., cooled to room temperature.
[11] abbreviates: Paraffin wax, 75/25 weight ratio, heated to 80° C., cooled to room temperature.
The mark [12] stands for this setting: Stearic acid, 50/50 weight ratio, heated to 80° C., cooled to room temperature.
Where [13] appears, read: with Basil (Ocimum basilicum) essential oil.
Where [14] appears, read: with Bergamot (Citrus bergamia) essential oil.
The mark [15] stands for this setting: with Birch sweet (Betula lenta) essential oil.
Where [16] appears, read: with Citronella (Cymbopogon nardus) essential oil.
The mark [17] stands for this setting: with Coriander seed (Coriandrum sativum) essential oil.
Setting [18] is: with Geranium (Pelargonium graveolens) essential oil.
Setting [19] is: with Lavender (Lavandula angustifolium) essential oil.
Where [20] appears, read: with Myrrh (Commiphora myrrha) essential oil.
[21] abbreviates: with Orange (Citrus sinensis) essential oil.
The mark [22] stands for this setting: with Patchouli (Pogostemon patchouli) essential oil.
The mark [23] stands for this setting: with Pine needle (pinus sylvestris) essential oil.
Setting [24] is: with Vetiver (Vetivera zizanoides) essential oil.
Where [25] appears, read: with Ylang ylang (Canaga odorata) essential oil.

Turning to “2,2,4-trimethyl-1,3-pentanediol monoisobutyrate [TPM]”, the “% mass remaining” value in data set [1] (0 min) was found to be 100%; in data set [1] (5 min), 74%; in data set [1] (10 min), 49%; in data set [1] (15 min) it was 26%; in data set [1] (20 min), 4%; in data set [1] (30 min), 0%. Further, the “% mass remaining” value in data set [1] (60 min) worked out at 0%.
`CCCCCCCCCOC(=O)CCC1(C)OCC(C)O1` (stereo not drawn) [1N-LPK, 1-nonyl levulinate propylene glycol ketal]: the “Miscibility with tea tree oil” value in data set [2] is given as “miscible”. Also, in data set [3], the “Initial pH” value is given as 8.92. Moreover, the “pH 1 week” value in data set [3] came out at 8.75. Moreover, the “pH 2 weeks” value in data set [3] turned out to be 8.63. In addition, the “Compatibility with wax upon cooling” value in data set [4] (setting [8]), in data set [4] (setting [9]), in data set [4] (setting [10]), in data set [4] (setting [11]) and in data set [4] (setting [12]) was “single homogenous wax layer” throughout. Further, the “Miscibility of 50/50 blend by weight” value in data set [5] (setting [13]), in data set [5] (setting [14]), in data set [5] (setting [15]), in data set [5] (setting [16]), in data set [5] (setting [17]) and in data set [5] (setting [18]) was “Miscible” throughout. Further, the “Miscibility of 50/50 blend by weight” value in data set [5] (setting [19]), in data set [5] (setting [20]), in data set [5] (setting [21]), in data set [5] (setting [22]), in data set [5] (setting [23]) and in data set [5] (setting [24]) was “Miscible” each time. Further, in data set [5] (setting [25]), the “Miscibility of 50/50 blend by weight” value is given as “Miscible”.
As to `CCCCC(CC)COC(=O)CCC1(C)OCC(C)O1` (stereo not drawn) [2EH-LPK, 2-ethylhexyl levulinate propylene glycol ketal], the “Miscibility with tea tree oil” value in data set [2] was “miscible”. Moreover, in data set [6], the “Initial pH” value was 8.97. Also, the “pH 1 week” value in data set [6] is listed as 8.99. Moreover, the “pH 2 weeks” value in data set [6] was 8.94. In data set [6], the “pH 3 weeks” value amounted to 9.03. Further, the “pH 4 weeks” value in data set [6] is 9.00. The “Compatibility with wax upon cooling” value in data set [4] (setting [8]), in data set [4] (setting [9]), in data set [4] (setting [10]), in data set [4] (setting [11]) and in data set [4] (setting [12]) was “single homogenous wax layer” each time. Also, the “Miscibility of 50/50 blend by weight” value in data set [5] (setting [13]), in data set [5] (setting [14]), in data set [5] (setting [15]), in data set [5] (setting [16]), in data set [5] (setting [17]) and in data set [5] (setting [18]) was “Miscible” throughout. For the same molecule, the “Miscibility of 50/50 blend by weight” value in data set [5] (setting [19]), in data set [5] (setting [20]), in data set [5] (setting [21]), in data set [5] (setting [22]), in data set [5] (setting [23]) and in data set [5] (setting [24]) was “Miscible” in each case. In addition, the “Miscibility of 50/50 blend by weight” value in data set [5] (setting [25]) is on record as “Miscible”.
Regarding `CC(CCOC(=O)CCC1(C)OCC(C)O1)CC(C)(C)C` (stereo not drawn) [355TMH-LPK, 3,5,5-trimethylhexyl levulinate propylene glycol ketal], the “Miscibility with tea tree oil” value in data set [2] is given as “miscible”. Also, in data set [3], the “Initial pH” value stood at 8.92. In addition, the “pH 1 week” value in data set [3] worked out at 8.78. In data set [3], the “pH 2 weeks” value worked out at 8.64. The “Compatibility with wax upon cooling” value in data set [4] (setting [8]), in data set [4] (setting [9]), in data set [4] (setting [10]), in data set [4] (setting [11]) and in data set [4] (setting [12]) was “single homogenous wax layer” in each case. Moreover, the “Miscibility of 50/50 blend by weight” value in data set [5] (setting [13]), in data set [5] (setting [14]), in data set [5] (setting [15]), in data set [5] (setting [16]), in data set [5] (setting [17]) and in data set [5] (setting [18]) was “Miscible” throughout. Further, the “Miscibility of 50/50 blend by weight” value in data set [5] (setting [19]), in data set [5] (setting [20]), in data set [5] (setting [21]), in data set [5] (setting [22]), in data set [5] (setting [23]) and in data set [5] (setting [24]) was “Miscible” throughout. Further, the “Miscibility of 50/50 blend by weight” value in data set [5] (setting [25]) is reported as “Miscible”.
In the case of `COc1ccc(C(=O)CC(=O)c2ccc(C(C)(C)C)cc2)cc1` [Avobenzone, avobenzone], the Miscibility in ethanol entry in data set [7] (5% by weight level in ethanol) is reported as “immiscible”.
For the molecule `CCOC(=O)CCC1(C)OCC(C)O1` (stereo not drawn) [EtLPK, ethyl levulinate propylene glycol ketal], in data set [3], the “Initial pH” value is 8.95, the “pH 1 week” value turned out to be 8.06 and the “pH 2 weeks” value stood at 7.53. In data set [6], the “Initial pH” value came out at 9.00, the “pH 1 week” value is 8.69, the “pH 2 weeks” value was determined as 8.53 and the “pH 3 weeks” value stood at 8.41. Moreover, the “pH 4 weeks” value in data set [6] stood at 8.24.
With `COc1ccc(C(=O)c2ccccc2)c(O)c1` [Oxybenzone, oxybenzone], the Miscibility in ethanol entry in data set [7] (10% by weight level in ethanol) was “immiscible”.
In the case of `CC(C)OC(=O)CCC1(C)OCC(C)O1` (stereo not drawn) [iPrLPK, isopropyl levulinate propylene glycol ketal], in data set [6], the “Initial pH” value worked out at 8.93, the “pH 1 week” value worked out at 8.79, the “pH 2 weeks” value is 8.73 and the “pH 3 weeks” value was 8.71. Moreover, in data set [6], the “pH 4 weeks” value was determined as 8.64.
